Assay results published in patent US20260055079A1, “PHTHALAZINONE COMPOUNDS AS PARP7 INHIBITORS” (AZKARRA THERAPEUTICS, INC., priority 2022, published 2026).

Target: His-GST-PARP7 (Homo sapiens (Human), UniProt Q7Z3E1)
Test: PARP7 biochemical assay
Settings: read-out: PARP7 IC50

Chain of His-GST-PARP7 (Q7Z3E1 whole entry): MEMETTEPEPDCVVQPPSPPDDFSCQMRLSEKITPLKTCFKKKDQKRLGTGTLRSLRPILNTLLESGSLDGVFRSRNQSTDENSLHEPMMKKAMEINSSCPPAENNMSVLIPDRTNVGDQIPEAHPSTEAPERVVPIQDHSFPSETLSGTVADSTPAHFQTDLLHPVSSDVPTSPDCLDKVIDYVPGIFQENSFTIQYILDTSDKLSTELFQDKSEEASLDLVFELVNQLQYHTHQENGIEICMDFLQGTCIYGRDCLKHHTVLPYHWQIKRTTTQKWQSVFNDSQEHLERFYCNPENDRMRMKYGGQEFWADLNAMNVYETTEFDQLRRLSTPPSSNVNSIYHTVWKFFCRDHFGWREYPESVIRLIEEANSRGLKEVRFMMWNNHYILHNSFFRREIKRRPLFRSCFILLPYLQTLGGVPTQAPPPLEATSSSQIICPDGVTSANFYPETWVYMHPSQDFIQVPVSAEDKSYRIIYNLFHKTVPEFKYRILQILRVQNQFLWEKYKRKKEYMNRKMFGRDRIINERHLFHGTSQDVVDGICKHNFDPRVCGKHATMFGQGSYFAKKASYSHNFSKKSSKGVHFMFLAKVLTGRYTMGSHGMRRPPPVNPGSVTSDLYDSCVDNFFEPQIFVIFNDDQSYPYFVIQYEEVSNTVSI

4-(4-Fluoro-3-(4-(5-(trifluoromethyl)pyrimidin-2-yl)piperazine-1-carbonyl)benzyl)-6-(3,3,3-trifluoroprop-1-yn-1-yl)phthalazin-1(2H)-one [Example 42]
IC50: 500 to 2000 nM

6-(3-(5-((7-Cyclobutoxy-4-oxo-3,4-dihydrophthalazin-1-yl)methyl)-2-fluorobenzoyl)-3,8-diazabicyclo[3.2.1]octan-8-yl)nicotinonitrile [Example 99]
IC50: < 50 nM

O=C(c1cc(Cc2n[nH]c(=O)c3ccc(OC4CCC4)cc23)ccc1F)N1C[C@@H]2CC[C@H]1CN2C(=O)C1CC1 (stereo in doubt) [Example 142, 6-Cyclobutoxy-4-(3-(5-(cyclopropanecarbonyl)-2,5-diazabicyclo[2.2.2]octane-2-carbonyl)-4-fluorobenzyl)phthalazin-1(2H)-one]
IC50: 100 to 500 nM

N#Cc1ccc(N2C[C@H]3C[C@@H]2CN3C(=O)c2cccc(Cc3n[nH]c(=O)c4ccc(-c5cccnc5)cc34)c2)nc1 (stereo in doubt) [Example 184, 6-(5-(3-((4-Oxo-7-(pyridin-3-yl)-3,4-dihydrophthalazin-1-yl)methyl)benzoyl)-2,5-diazabicyclo[2.2.1]heptan-2-yl)nicotinonitrile]
IC50: 100 to 500 nM

C/C(=C\C(F)(F)F)c1ccc2c(=O)[nH]nc(Cc3ccc(F)c(C(=O)N4CCN(c5ccc(C#N)cn5)CC4)c3)c2c1 [Example 32, (E)-6-(4-(2-fluoro-5-((4-oxo-7-(4,4,4-trifluorobut-2-en-2-yl)-3,4-dihydrophthalazin-1-yl)methyl)benzoyl)piperazin-1-yl)nicotinonitrile]
IC50: < 50 nM

N#Cc1ccc(N2CCN(C(=O)c3cc(Cc4n[nH]c(=O)c5ccc(N6CC7(C6)CC(F)(F)C7)cc45)ccc3F)CC2)nc1 [Example 35, 6-(4-(5-((7-(6,6-Difluoro-2-azaspiro[3.3]heptan-2-yl)-4-oxo-3,4-dihydrophthalazin-1-yl)methyl)-2-fluorobenzoyl)piperazin-1-yl)nicotinonitrile]
IC50: 50 to 100 nM

N#Cc1ccc(N2CCN(C(=O)c3cc(Cc4n[nH]c(=O)c5ccc(Oc6ccccn6)cc45)ccc3F)CC2)nc1 [Example 38, 6-(4-(2-Fluoro-5-((4-oxo-7-(pyridin-2-yloxy)-3,4-dihydrophthalazin-1-yl)methyl)benzoyl)piperazin-1-yl)nicotinonitrile]
IC50: < 50 nM

N#Cc1ccc(N2CCN(C(=O)c3cc(Cc4n[nH]c(=O)c5ccc(Oc6ccc7ccccc7c6)cc45)ccc3F)CC2)nc1 [Example 39, 6-(4-(2-Fluoro-5-((7-(naphthalen-2-yloxy)-4-oxo-3,4-dihydrophthalazin-1-yl)methyl)benzoyl)piperazin-1-yl)nicotinonitrile]
IC50: 50 to 100 nM

CC#Cc1ccc2c(=O)[nH]nc(Cc3ccc(F)c(C(=O)N4CCN(c5ncc(C(F)(F)F)cn5)CC4)c3)c2c1 [Example 48, 4-(4-Fluoro-3-(4-(5-(trifluoromethyl)pyrimidin-2-yl)piperazine-1-carbonyl)benzyl)-6-(prop-1-yn-1-yl)phthalazin-1(2H)-one]
IC50: 100 to 500 nM

N#Cc1ccc(N2CCN(C(=O)c3cc(Cc4n[nH]c(=O)c5ccc(S(=O)(=O)C6CC(F)(F)C6)cc45)ccc3F)CC2)nc1 [Example 54, 6-(4-(5-((7-((3,3-Difluorocyclobutyl)sulfonyl)-4-oxo-3,4-dihydrophthalazin-1-yl)methyl)-2-fluorobenzoyl)piperazin-1-yl)nicotinonitrile]
IC50: 500 to 2000 nM

CC#Cc1ccc2c(=O)[nH]nc(Cc3ccc(F)c(C(=O)N4CCN(c5cncc(C#N)n5)CC4)c3)c2c1 [Example 55, 6-(4-(2-Fluoro-5-((4-oxo-7-(prop-1-ynyl)-3,4-dihydrophthalazin-1-yl)methyl)benzoyl)piperazin-1-yl)pyrazine-2-carbonitrile]
IC50: 100 to 500 nM

CC#Cc1ccc2c(=O)[nH]nc(Cc3ccc(F)c(C(=O)N4CCN(C(=O)CCC(F)(F)F)CC4)c3)c2c1 [Example 57, 4-(4-Fluoro-3-(4-(4,4,4-trifluorobutanoyl)piperazine-1-carbonyl)benzyl)-6-(prop-1-ynyl)phthalazin-1(2H)-one]
IC50: < 50 nM
